Assay results: US9233116B2, “Composition containing iridoids and uses thereof” (XUANWU HOSPITAL OF CAPITAL MEDICAL UNIVERSITY, priority 2010, dated 2016)

How the values were obtained:
[1] = tested on: experimental autoimmune encephalomyelitis (EAE) rats model; assay: Nervous function damage in EAE rats model; assay type: in vivo, Lewis rats; settings: peak of attack, positive control drug, dose not given
Description: (§1) Preparation of rat model and administration: in this experiment, the preparation of EAE rat model was performed by multipoint immunizing female Lewis rats subcutaneously at tail root with a homogenate of spinal cord and cerebral gray matter of Guinea pig as well as complete Freund's adjuvant after emulsification. They were intragastrically administered with a composition of morroniside and loganin for 3 weeks.
Nervous function test method: the ethological changes of rats were observed by two experimenters using blind method every day. Scoring standard: 0 score, absence of symptom; 1 score, decrease of tail tension, visible evident slight gait awkward; 2 score, double hind limbs weak, walk difficult; 3 score, double hind limbs paralysis; 4 score, double hind limbs paralysis and fore limbs weak; 5 score, four limbs paralysis; 6 score, near death or died.

[2] = tested on: spinal cord tissues of EAE mice model; assay: Inflammatory cell infiltration in spinal cord tissues of EAE mice model (HE staining); assay type: in vivo; settings: day 29, positive control drug, dose not given
Description: Preparation of mice model and administration: experimental autoimmune encephalomyelitis (EAE) mice model is an important tool for studying various human nervous system demyelinating diseases. In the present experiment, the preparation of EAE mice model was performed by immunizing female C57BL/6J mice with myelin sheath oligodendroglial cell surface glycoprotein MOG35-55. That is, the mice were subcutaneously injected at dorsal part of spinal column with 0.2 mL of MOG35-55 antigen elixir, and 0.2 ml of bordetella pertussis solution was intraperitoneally injected at the time of immunization injection and 48 h thereafter, respectively. […]
Experimental method: the mice were anesthetized with 10% chloral hydrate on the 29th day of experiment, fixed by perfusion of 4% paraformaldehyde, spinal cord tissues were taken for making paraffin sections, section thickness 5 μm. Stained with HE, observed under microscope, and scored according to the following standard: 0 score, absence of cell infiltration; 1 score, spinal meninge cell infiltration; 2 score, 1 to 4 small ranges of cell infiltration around vessels; 3 score, 5 or more small ranges of cell infiltration around vessels, or one or more accumulatively substantial large range of cell infiltration; 4 score, a large number of cell infiltration ranges accumulatively existing in 20% or more of white matter regions.

IL-6 = assay: Serum IL-6 content in EAE mice model (ELISA); assay type: in vivo; settings: serum of EAE mice; positive control drug, dose not given
Description: (§2) Preparation of mice model and administration: experimental autoimmune encephalomyelitis (EAE) mice model is an important tool for studying various human nervous system demyelinating diseases. In the present experiment, the preparation of EAE mice model was performed by immunizing female C57BL/6J mice with myelin sheath oligodendroglial cell surface glycoprotein MOG35-55. That is, the mice were subcutaneously injected at dorsal part of spinal column with 0.2 mL of MOG35-55 antigen elixir, and 0.2 ml of bordetella pertussis solution was intraperitoneally injected at the time of immunization injection and 48 h thereafter, respectively. The composition of morroniside and loganin was intragastrically administered after the last injection of bordetella pertussis solution, for consecutive 3 weeks.
(§3) Experimental method: mice were anesthetized with pentobarbital sodium, blood sample was taken from abdominal aorta, stood at room temperature for 2 h, centrifuged at 3000 rpm for 20 min, and supernatant was taken, stored at −80° C. for use. The operation was performed strictly according to the steps of specification of ELISA kit. Optical density was measured with ELIASA at 450 nm. The corresponding contents of IL-1 and IL-6 were calculated with the measured OD values on standard curve.

[3] = tested on: myelin sheath of spinal cord in EAE model mice; assay: Myelinoclasis of spinal cord in EAE mice model (LFB staining); assay type: in vivo; settings: day 29, positive control drug, dose not given
Description: as §2
Experimental method: the mice were anesthetized with 10% chloral hydrate on the 29th day of experiment, fixed by perfusion of 4% paraformaldehyde, myeloid tissues were taken for making paraffin sections, section thickness 5 μm. Stained with LFB, observed under microscope, and scored according to the following standard: 0 score, absence of myelinoclasis; 1 score, one small range of myelinoclasis; 2 score, 2 or 3 small ranges of myelinoclasis; 3 score, 1 to 2 large ranges of myelinoclasis; 4 score, large ranges of myelinoclasis accumulatively existing in 20% or more of white matter regions.

[4] = tested on: CNPase (marker protein of mature oligodendroglial cells); assay: CNPase content in spinal cord of EAE model mice (Western blot); assay type: in vivo; settings: positive control drug, dose not given
Description: as §2
Experimental method: the mice were anesthetized and sacrificed, fresh spinal cord was taken on ice, total protein was extracted by clearage on ice, to prepare Western blot sample, added with CNPase primary antibody and incubated, added with corresponding secondary antibody, ECL colorated, Kodak film exposed. Pictures were analyzed with Image J software and standardized with actin.

[5] = Body weight drop in EAE rat model; assay type: in vivo, Lewis rats; settings: EAE rats, peak of attack; positive control drug, dose not given
Description: as §1
Experimental method: the methods for modeling and administration were the same of Experiment 7. The body weight changes of rats were recorded every day.

IL-1 = assay: Serum IL-1 content in EAE mice model (ELISA); assay type: in vivo; settings: serum of EAE mice; positive control drug, dose not given
Description: as §2, §3

[6] = tested on: experimental autoimmune encephalomyelitis (EAE) mice model; assay: Nervous function score in EAE mice model; assay type: in vivo, C57BL/6J mice; settings: peak of attack, positive control drug, dose not given
Description: as §2
Nervous function test method: the ethological changes of mice were observed by two experimenters every day using blind method. Scoring standard: 0 score, absence of symptom; 1 score, decrease of tail tension, evident slight gait awkward; 2 score, disappearance of tail tension, moderate gait abnormal, deficient in maintaining gesture; 3 score, limb strength weak; 4 score, limb paralysis; 5 score, near death or died.

[7] = Body weight drop in EAE mice model; assay type: in vivo, C57BL/6J mice; settings: peak of attack, positive control drug, dose not given
Description: as §2
Experimental method: the methods for modeling and administration were the same of Experiment 1. The body weight changes of mice were recorded every day.

Compound: CC(=O)OCC(=O)[C@@]1(O)CC[C@H]2[C@@H]3CCC4=CC(=O)C=C[C@]4(C)[C@H]3C(=O)C[C@@]21C [prednisone acetate]
- Nervous function damage score [1]: 1.16 ± 1.21 score
- Inflammatory cell infiltration (HE staining score) [2]: 1.16 ± 0.12 score
- IL-6 content (IL-6): 0.124 ± 0.002 pg/mL
- Myelinoclasis (LFB staining score) [3]: 0.81 ± 0.21 score
- Oligodendroglial cells (CNPase/actin integration grey level) [4]: 1.18 ± 0.02
- Bodyweight [5]: 198.5 ± 7.1 g
- 1L-1 content (IL-1): 0.114 ± 0.001 pg/mL
- Nervous function damage score [6]: 1.36 ± 0.62 score
- Bodyweight [7]: 20.52 ± 1.19 g
